For one assay, the system named is HCT-15. In words: XTT in vitro growth inhibition assay, parental HCT-15. Conditions: IC50 of subline divided by IC50 of parental cells; HCT-15 (parental, reference). The class given is cell-based, human.
The next assay relates to HCT-15/ADM1. The assay can be described thus: XTT in vitro growth inhibition assay, HCT-15/ADM1. Type of assay: cell-based, human. Conditions: IC50 of HCT-15/ADM1 divided by IC50 of parental HCT-15. For orientation: Formazan colour is commonly taken as a measure of viable cells.
A further assay relates to HCT-15/ADM2. The assay can be described thus: XTT in vitro growth inhibition assay, HCT-15/ADM2. As to conditions: IC50 of HCT-15/ADM2 divided by IC50 of parental HCT-15. The class given is cell-based, human.
Another assay concerns HCT-15/ADM2-2. In words: XTT in vitro growth inhibition assay, HCT-15/ADM2-2. The class given is cell-based, human. Conditions: IC50 of HCT-15/ADM2-2 divided by IC50 of parental HCT-15.
Another assay concerns P-glycoprotein-ATPase. Conditions: cited from earlier work.
For a further assay, the system named is P-glycoprotein. As to conditions: cited from earlier work.
For assay [1] the following is noted: in contrast to cyclosporin A; cited from earlier work.
A further assay relates to leukemia. As to conditions: randomized trials, combination chemotherapy against leukemia; cited from earlier work.

Turning to `COc1cccc2c1C(=O)c1c(O)c3c(c(O)c1C2=O)C[C@@](O)(C(=O)CO)C[C@@H]3O[C@H]1C[C@H](N)[C@@H](O)[C@H](C)O1` [Epirubicin], the Relative resistance is on record as 1 in the assay with HCT-15, 1.58 in the assay on HCT-15/ADM1, 3.34 in the assay with HCT-15/ADM2 and 4.33 with HCT-15/ADM2-2.

Take `CC(=O)O[C@H]1C(=O)[C@@]2(C)[C@H]([C@H](OC(=O)c3ccccc3)[C@]3(O)C[C@H](OC(=O)[C@H](O)[C@@H](NC(=O)c4ccccc4)c4ccccc4)C(C)=C1C3(C)C)[C@]1(OC(C)=O)CO[C@@H]1C[C@@H]2O` [Taxol, paclitaxel]: the Relative resistance is recorded as 1 in the assay on HCT-15, 2.81 with HCT-15/ADM1, 2.63 in the assay with HCT-15/ADM2 and 4.81 in the assay on HCT-15/ADM2-2.

With `CC[C@]1(O)C[C@H]2CN(CCc3c([nH]c4ccccc34)[C@@](C(=O)OC)(c3cc4c(cc3OC)N(C=O)[C@H]3[C@@](O)(C(=O)OC)[C@H](OC(C)=O)[C@]5(CC)C=CCN6CC[C@]43[C@@H]65)C2)C1` [Vincristine], the Relative resistance in the assay with HCT-15 came out at 1; with HCT-15/ADM1 it was 2.03; in the assay on HCT-15/ADM2 it was 2.19; in the assay with HCT-15/ADM2-2, 2.96.

With `O=C1c2c(O)ccc(O)c2C(=O)c2c(NCCNCCO)ccc(NCCNCCO)c21` [Mitoxantrone], the Relative resistance was found to be 1 in the assay with HCT-15, 1.42 in the assay with HCT-15/ADM1, 5.40 with HCT-15/ADM2 and 3.12 in the assay on HCT-15/ADM2-2.

Take `COc1cccc2c1C(=O)c1c(O)c3c(c(O)c1C2=O)C[C@@](O)(C(=O)CO)C[C@@H]3O[C@H]1C[C@H](N)[C@H](O)[C@H](C)O1` [Adriamycin]: the Relative resistance with HCT-15 amounted to 1; in the assay on HCT-15/ADM1 it was 2.23; with HCT-15/ADM2, 4.40; in the assay with HCT-15/ADM2-2 it was 7.77.

On to `COc1cc([C@@H]2c3cc4c(cc3[C@@H](O[C@@H]3O[C@@H]5CO[C@@H](C)O[C@H]5[C@H](O)[C@H]3O)[C@H]3COC(=O)[C@H]23)OCO4)cc(OC)c1O` [Etoposide], for which the Relative resistance with HCT-15 is 1; in the assay on HCT-15/ADM1, 2.27; with HCT-15/ADM2, 2.55; in the assay with HCT-15/ADM2-2 it was 3.16.

For “[3′‐keto‐Bmt^1]‐[Val^2]‐cyclosporin [Valspodar]”, in the assay with P-glycoprotein-ATPase, the “Inhibition of substrate-stimulated P-glycoprotein-ATPase activity” value is “more potent than cyclosporin A”. The “Effect on binding of photoactive analogues of cyclosporin to P-glycoprotein” value with P-glycoprotein is recorded as “inhibited”. In assay [1], the Immunosuppressive activity entry was “non-immunosuppressive”. Besides, the “Complete remission rates or survival” value in the assay on leukemia is listed as “failed to improve”.

In the case of `CO[C@@]12[C@H](COC(N)=O)C3=C(C(=O)C(C)=C(N)C3=O)N1C[C@@H]1N[C@@H]12` [Mitomycin C], the Relative resistance in the assay with HCT-15 turned out to be 1; with HCT-15/ADM1, 0.80; in the assay with HCT-15/ADM2 it was 1.77; in the assay on HCT-15/ADM2-2, 0.26.

Source of the values: PMC5926616 (Japanese Journal of Cancer Research : Gann, 2001).
